Here are results for 19 compounds from US8058243B2, “Method for treating a brain cancer with ifenprodil” (HSC Research and Development Limited Partnership, priority 2006, dated 2011).

SMILES strings stand for the structures. Counter-ions that a name gives are not always drawn. Like-named read-outs stand apart in the source and are kept apart here.

The subject of the experiment is murine neural precursor cells (neurosphere cultures). The experiment in a line: HTS of LOPAC library against secondary neurosphere cultures, MTT proliferation assay at 3 μM, day 7 (z score, P value). In kind it is cell-based, mouse. The conditions noted are these: for Z score: neurosphere MTT proliferation. In general terms: Tetrazolium assays rely on reduction of a dye to a coloured formazan, in cell work by metabolically active cells.

[1] abbreviates: LOPAC primary screen, 3 μM, day 7.
The mark [2] stands for this setting: yes = significantly inhibited neurosphere proliferation (P<0.01) in the primary screen.
[3] abbreviates: yes/no: significantly inhibited neurosphere proliferation (P<0.01) in the primary screen.
Setting [4] is: LOPAC library screen at 3 μM, secondary neurosphere cultures, MTT.
Setting [5] is: LOPAC library screen, 3 μM, MTT, secondary neurosphere cultures, day 7.

`CN1CC[C@]2(CCN3CCc4c(oc5ccccc45)[C@@H]3C2)N(C)C1=O.Cl` [MK-912]: the “Z Score” value was −0.582. Under setting [1], the Z score was −0.582. Moreover, the Activity entry under setting [2] is on record as “no”.

Take `O=S(=O)(c1cccc2c(I)cccc12)N1CCCNCC1` [ML-7]: the “Z Score” value is −11.27. Also, the Z score under setting [1] is −11.274. Further, the Activity result under setting [3] is “yes”.

Take `CN1C2CCC1CC(OC(=O)c1cc(Cl)cc(Cl)c1)C2` (stereo not drawn) [ML-9]: the “Z Score” value is given as −9.322. Moreover, the Z score under setting [1] is on record as −9.322.

Take `CCCOC(=O)c1c(-c2ccccc2)nc(CC)c(C(=O)SCC)c1CCC` [MRS 1523]: the “Z Score” value is given as −0.001312. Further, under setting [1], the Z score is −0.001. For the same compound, under setting [2], the Activity entry was “no”.

Consider `CCCn1c(=O)c2[nH]c(-c3ccc(OCC(=O)Nc4ccc(C#N)cc4)cc3)nc2n(CCC)c1=O` [MRS 1754], for which the “Z Score” value was 0.9268. Further, under setting [1], the Z score worked out at 0.927. Besides, the Activity result under setting [2] is reported as “no”.

Take `C#CCN1C(C)=C(C(=O)OC)C(c2cccc([N+](=O)[O-])c2)C(C(=O)OCC)=C1C` (stereo not drawn) [MRS 1845]: the Activity entry is “no” and the “Z Score” value was −0.006196. Besides, the Z score under setting [1] is given as −0.006.

Consider `Cc1nc(N=Nc2ccc(C(=O)O)cc2)c(COP(=O)(O)O)c(C=O)c1O` [MRS 2159], for which the “Z Score” value is reported as −0.2666. Also, under setting [1], the Z score is given as −0.267. Moreover, under setting [2], the Activity entry is on record as “no”.

As for `CNc1ncnc2c1ncn2[C@H]1C[C@H](OP(=O)(O)O)[C@@H](COP(=O)(O)O)O1` [MRS 2179], the “Z Score” value is −1.246. This compound yielded a Z score under setting [1] of −1.246. Besides, the Activity result under setting [2] is “no”.

For `CNCCCC12CCC(c3ccccc31)c1ccccc12` [Maprotiline hydrochloride], under setting [4], the “Z Score” value is recorded as −0.3615. Moreover, the Z score under setting [1] was −0.361. Also, the Activity entry under setting [2] is on record as “no”.

Regarding `C[N+](C)(C)CC#CCOC(=O)Nc1cccc(Cl)c1.[Cl-]` [McN-A-343], the “Z Score” value was −0.08897. The same compound had a Z score (LOPAC screen, 3 μM, day 7) of −0.089. For the same compound, under “yes/no: significantly inhibited neurosphere proliferation (P<0.01) in primary screen”, the Activity entry is on record as “no”.

For `CN(N=O)c1ccc(O)c(O)c1` [Me-3,4-dephostatin], the “Z Score” value is 0.5834. Also, the Z score under setting [1] came out at 0.583. For the same compound, the Activity entry under setting [2] is “no”.

`CNC1(C)C2CCC(C2)C1(C)C` (stereo not drawn) [Mecamylamine hydrochloride]: the “Z Score” value under setting [5] is given as −2.108. The compound further came in with a Z score under setting [1] of −2.108. Under setting [2], the Activity result was “no”.

For `Cc1ccc(Cl)c(Nc2ccccc2C(=O)O)c1Cl` [Meclofenamic acid sodium], for the setting “LOPAC library screen at 3 μM, MTT, secondary neurosphere cultures, screened in singlets”, the “Z Score” value is recorded as 2.233. The Z score under setting [1] amounted to 2.233. Further, under setting [2], the Activity entry is “no”.

On to `COc1ccc2[nH]cc(CCNC(C)=O)c2c1` [Melatonin], for which the “Z Score” value under setting [4] is reported as −0.2407. The compound also displayed a Z score under setting [1] of −0.241. Under setting [2], the Activity result is listed as “no”.

With `Cc1cnc(NC(=O)C2=C(O)c3ccccc3S(=O)(=O)N2C)s1` [Meloxicam sodium], under setting [2], the Activity result is “no”.

On to `N[C@@H](Cc1ccc(N(CCCl)CCCl)cc1)C(=O)O` [Melphalan], for which the “Z Score” value is −3.907. This compound also returned a Z score under setting [1] of −3.907. Besides, the Activity entry under setting [3] was “yes”.

`CC12CC3CC(C)(C1)CC(N)(C3)C2` [Memantine hydrochloride]: under setting [4], the “Z Score” value is −0.141. Moreover, under setting [1], the Z score is −0.141. The Activity entry under setting [2] is reported as “no”.

`CN1C[C@@H](NS(=O)(=O)N(C)C)C[C@@H]2c3cccc4c3c(cn4C)C[C@H]21` [Mesulergine hydrochloride]: under setting [5], the “Z Score” value is recorded as −2.16. Moreover, under setting [1], the Z score is on record as −2.160. In addition, under setting [3], the Activity result was “no”.

For `CN1C[C@H](CNC(=O)OCc2ccccc2)C[C@@H]2c3cccc4c3c(cn4C)C[C@H]21` [Metergoline (39), Metergoline, reference compound], the “Z Score” value under setting [5] is recorded as −4.342. Moreover, the Z score under setting [1] is recorded as −4.342. In addition, the Activity entry under setting [3] was “yes”.
